{
  "source": "ChEMBL document CHEMBL3132769",
  "about": "“Fragment growing to retain or alter the selectivity of anchored kinase hinge-binding fragments” (Medchemcomm, 2014)",
  "key": {"[1]": {"molecular_target": "Hepatocyte growth factor receptor (Homo sapiens) (UniProt P08581)", "sequence (P08581 whole entry, the tested form may be a part)": "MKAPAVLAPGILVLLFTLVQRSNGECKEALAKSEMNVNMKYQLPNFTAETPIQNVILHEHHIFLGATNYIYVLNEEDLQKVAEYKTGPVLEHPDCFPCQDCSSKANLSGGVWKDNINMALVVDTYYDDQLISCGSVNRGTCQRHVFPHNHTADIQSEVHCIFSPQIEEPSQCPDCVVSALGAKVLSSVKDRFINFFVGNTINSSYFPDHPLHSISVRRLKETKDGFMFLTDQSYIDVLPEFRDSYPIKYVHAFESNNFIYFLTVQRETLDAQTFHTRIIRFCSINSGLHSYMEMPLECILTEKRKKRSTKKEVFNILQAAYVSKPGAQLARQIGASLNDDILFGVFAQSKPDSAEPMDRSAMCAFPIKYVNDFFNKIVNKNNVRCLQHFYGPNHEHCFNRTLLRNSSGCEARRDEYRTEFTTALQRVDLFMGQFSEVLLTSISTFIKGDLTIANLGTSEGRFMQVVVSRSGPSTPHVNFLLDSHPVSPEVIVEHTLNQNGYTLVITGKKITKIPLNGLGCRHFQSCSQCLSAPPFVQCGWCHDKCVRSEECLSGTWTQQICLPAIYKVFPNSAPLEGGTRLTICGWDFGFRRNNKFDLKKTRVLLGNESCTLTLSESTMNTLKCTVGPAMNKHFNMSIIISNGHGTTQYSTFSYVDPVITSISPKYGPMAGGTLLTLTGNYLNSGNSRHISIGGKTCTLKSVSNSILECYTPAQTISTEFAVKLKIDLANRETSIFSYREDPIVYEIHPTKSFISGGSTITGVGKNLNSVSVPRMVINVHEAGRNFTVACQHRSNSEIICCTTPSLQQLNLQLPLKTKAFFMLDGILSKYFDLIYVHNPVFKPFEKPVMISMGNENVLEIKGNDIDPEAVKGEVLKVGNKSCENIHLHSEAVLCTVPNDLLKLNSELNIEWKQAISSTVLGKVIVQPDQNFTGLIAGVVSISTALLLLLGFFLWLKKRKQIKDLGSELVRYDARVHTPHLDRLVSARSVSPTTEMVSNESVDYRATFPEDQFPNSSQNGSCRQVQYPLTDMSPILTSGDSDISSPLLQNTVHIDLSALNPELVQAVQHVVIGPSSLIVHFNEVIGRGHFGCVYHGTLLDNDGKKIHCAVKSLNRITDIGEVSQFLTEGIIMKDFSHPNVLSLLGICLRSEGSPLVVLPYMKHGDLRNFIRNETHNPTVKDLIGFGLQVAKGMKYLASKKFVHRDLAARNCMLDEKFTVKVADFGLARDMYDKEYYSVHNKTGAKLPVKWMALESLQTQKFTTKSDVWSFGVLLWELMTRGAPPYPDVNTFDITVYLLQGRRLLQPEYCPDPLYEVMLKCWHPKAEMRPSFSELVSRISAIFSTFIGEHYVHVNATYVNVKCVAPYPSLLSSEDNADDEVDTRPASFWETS", "test": "Inhibition of human MET cytoplasmic domain expressed in baculovirus assessed as substrate phosphorylation using fluorescence-labelled peptides as substrate at 0.2 uM after 90 mins by microfluidic peptide phosphorylation assay"}, "[2]": {"molecular_target": "MAP kinase-activated protein kinase 3 (Homo sapiens) (UniProt Q16644)", "test": "Inhibition of human full length MAPKAPK3 expressed in Escherichia coli cell assessed as substrate phosphorylation using fluorescence-labelled peptides as substrate at 0.2 uM after 90 mins by microfluidic peptide phosphorylation assay"}, "[3]": {"molecular_target": "Protein kinase C gamma type (Homo sapiens) (UniProt P05129)", "test": "Inhibition of human truncated PKC gamma expressed in baculovirus assessed as substrate phosphorylation using fluorescence-labelled peptides as substrate at 0.2 uM after 90 mins by microfluidic peptide phosphorylation assay"}, "[4]": {"molecular_target": "Ribosomal protein S6 kinase alpha-3 (Homo sapiens) (UniProt P51812)", "test": "Inhibition of human full length RSK2 expressed in baculovirus assessed as substrate phosphorylation using fluorescence-labelled peptides as substrate at 420 uM after 90 mins by microfluidic peptide phosphorylation assay"}, "[5]": {"molecular_target": "T1, Inhibitor of nuclear factor kappa-B kinase subunit beta (Homo sapiens) (UniProt O14920)", "T1 sequence (whole entry)": "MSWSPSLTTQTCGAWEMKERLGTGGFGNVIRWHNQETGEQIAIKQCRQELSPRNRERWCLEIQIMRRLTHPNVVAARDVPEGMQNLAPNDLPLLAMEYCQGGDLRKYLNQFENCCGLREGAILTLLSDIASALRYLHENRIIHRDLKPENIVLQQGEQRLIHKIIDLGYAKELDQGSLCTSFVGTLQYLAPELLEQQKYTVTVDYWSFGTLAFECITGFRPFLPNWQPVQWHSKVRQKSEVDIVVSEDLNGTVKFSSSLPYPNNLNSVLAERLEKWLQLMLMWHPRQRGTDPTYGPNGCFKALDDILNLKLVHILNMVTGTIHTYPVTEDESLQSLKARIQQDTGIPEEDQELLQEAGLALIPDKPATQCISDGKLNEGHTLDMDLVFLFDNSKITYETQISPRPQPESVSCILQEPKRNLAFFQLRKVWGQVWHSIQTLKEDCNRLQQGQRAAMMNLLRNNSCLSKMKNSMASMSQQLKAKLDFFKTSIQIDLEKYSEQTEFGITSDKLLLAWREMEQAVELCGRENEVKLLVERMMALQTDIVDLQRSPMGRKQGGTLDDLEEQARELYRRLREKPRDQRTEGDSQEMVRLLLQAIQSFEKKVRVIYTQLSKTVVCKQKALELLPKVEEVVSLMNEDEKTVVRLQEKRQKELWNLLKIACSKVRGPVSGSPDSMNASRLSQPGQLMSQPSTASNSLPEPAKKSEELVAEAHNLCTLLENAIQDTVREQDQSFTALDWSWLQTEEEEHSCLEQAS", "test": "Inhibition of human full length IKK beta expressed in baculovirus assessed as substrate phosphorylation using fluorescence-labelled peptides as substrate at 9 uM after 90 mins by microfluidic peptide phosphorylation assay"}, "[6]": {"molecular_target": "Rho-associated protein kinase 2 (Homo sapiens) (UniProt O75116)", "sequence (O75116 whole entry, looked up, the tested form may be a part)": "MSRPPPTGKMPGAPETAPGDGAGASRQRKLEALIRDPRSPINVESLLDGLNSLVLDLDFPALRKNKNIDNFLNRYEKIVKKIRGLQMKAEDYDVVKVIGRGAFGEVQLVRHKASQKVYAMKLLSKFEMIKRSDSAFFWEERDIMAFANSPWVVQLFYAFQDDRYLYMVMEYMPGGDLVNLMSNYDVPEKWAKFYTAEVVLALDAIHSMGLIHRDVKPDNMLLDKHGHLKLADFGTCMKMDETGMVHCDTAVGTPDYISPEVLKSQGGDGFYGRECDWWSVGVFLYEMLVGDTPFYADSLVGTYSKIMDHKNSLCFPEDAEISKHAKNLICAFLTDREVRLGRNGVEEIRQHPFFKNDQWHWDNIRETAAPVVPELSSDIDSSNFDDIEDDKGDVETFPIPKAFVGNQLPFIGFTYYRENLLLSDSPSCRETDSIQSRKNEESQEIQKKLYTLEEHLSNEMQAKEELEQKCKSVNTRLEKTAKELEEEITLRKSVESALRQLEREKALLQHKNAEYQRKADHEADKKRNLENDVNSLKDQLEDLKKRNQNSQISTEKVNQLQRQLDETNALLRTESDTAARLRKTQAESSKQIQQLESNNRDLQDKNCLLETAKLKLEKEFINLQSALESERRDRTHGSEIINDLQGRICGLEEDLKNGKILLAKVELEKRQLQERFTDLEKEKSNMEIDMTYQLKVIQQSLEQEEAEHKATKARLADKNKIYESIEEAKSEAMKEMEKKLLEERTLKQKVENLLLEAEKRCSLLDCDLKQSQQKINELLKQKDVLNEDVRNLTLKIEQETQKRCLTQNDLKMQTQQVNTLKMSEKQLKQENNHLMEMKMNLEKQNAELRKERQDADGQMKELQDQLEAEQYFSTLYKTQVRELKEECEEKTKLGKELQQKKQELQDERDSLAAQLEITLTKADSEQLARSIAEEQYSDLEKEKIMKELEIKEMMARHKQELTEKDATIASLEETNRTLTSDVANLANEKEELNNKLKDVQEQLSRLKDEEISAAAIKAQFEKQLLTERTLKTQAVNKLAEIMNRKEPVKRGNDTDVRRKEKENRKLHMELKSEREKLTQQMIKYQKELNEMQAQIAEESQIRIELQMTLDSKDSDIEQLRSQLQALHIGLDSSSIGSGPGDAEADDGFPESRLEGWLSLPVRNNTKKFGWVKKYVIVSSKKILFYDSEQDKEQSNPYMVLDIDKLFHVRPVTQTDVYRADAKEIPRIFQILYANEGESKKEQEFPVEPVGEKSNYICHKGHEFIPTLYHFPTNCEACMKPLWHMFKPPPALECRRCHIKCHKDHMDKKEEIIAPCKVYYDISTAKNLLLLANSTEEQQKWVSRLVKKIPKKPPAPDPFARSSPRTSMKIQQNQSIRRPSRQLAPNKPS", "test": "Inhibition of human ROCK2 catalytic domain expressed in baculovirus assessed as substrate phosphorylation using fluorescence-labelled peptides as substrate at 9 uM after 90 mins by microfluidic peptide phosphorylation assay"}, "[7]": {"molecular_target": "Tyrosine-protein kinase Lyn (Homo sapiens) (UniProt P07948)", "sequence (P07948 2-512 limits assumed)": "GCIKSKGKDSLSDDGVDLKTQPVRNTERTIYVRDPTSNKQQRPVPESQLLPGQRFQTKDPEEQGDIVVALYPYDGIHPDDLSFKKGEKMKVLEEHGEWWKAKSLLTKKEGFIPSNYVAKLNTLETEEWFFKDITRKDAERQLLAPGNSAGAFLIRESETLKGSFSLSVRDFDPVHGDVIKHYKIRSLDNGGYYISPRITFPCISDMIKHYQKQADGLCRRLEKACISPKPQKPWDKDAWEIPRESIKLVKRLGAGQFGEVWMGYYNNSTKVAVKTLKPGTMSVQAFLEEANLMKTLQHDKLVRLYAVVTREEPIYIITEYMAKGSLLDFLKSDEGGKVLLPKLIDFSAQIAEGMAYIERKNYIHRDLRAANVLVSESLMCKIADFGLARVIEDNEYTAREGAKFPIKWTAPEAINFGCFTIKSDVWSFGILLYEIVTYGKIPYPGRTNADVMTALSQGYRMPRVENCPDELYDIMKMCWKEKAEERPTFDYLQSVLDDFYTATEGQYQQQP", "test": "Inhibition of human full length LYN expressed in baculovirus assessed as substrate phosphorylation using fluorescence-labelled peptides as substrate at […] after 90 mins by microfluidic peptide phosphorylation assay"}, "[8]": {"molecular_target": "Insulin receptor (Homo sapiens) (UniProt P06213)", "test": "Inhibition of human INSR catalytic domain expressed in baculovirus assessed as substrate phosphorylation using fluorescence-labelled peptides as substrate at […] after 90 mins by microfluidic peptide phosphorylation assay"}, "[9]": {"molecular_target": "T2, MAP kinase-activated protein kinase 5 (Homo sapiens) (UniProt Q8IW41)", "T2 sequence (whole entry)": "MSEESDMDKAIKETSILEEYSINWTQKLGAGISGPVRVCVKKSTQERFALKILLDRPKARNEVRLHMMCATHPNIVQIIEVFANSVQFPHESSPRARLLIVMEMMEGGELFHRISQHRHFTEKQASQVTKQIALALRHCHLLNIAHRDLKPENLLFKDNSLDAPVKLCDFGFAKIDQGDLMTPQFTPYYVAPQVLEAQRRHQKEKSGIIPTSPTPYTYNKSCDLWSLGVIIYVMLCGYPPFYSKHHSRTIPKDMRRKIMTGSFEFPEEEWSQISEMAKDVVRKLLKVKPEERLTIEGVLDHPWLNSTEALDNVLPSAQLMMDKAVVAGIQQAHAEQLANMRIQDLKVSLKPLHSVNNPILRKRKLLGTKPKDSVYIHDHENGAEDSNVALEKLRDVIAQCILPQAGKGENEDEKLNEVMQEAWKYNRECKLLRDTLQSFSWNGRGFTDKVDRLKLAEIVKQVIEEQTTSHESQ", "test": "Inhibition of human full length PRAK expressed in baculovirus assessed as substrate phosphorylation using fluorescence-labelled peptides as substrate at 0.06 uM after 90 mins by microfluidic peptide phosphorylation assay"}, "[10]": {"molecular_target": "T3, Serine/threonine-protein kinase Sgk2 (Homo sapiens) (UniProt Q9HBY8)", "T3 sequence (whole entry)": "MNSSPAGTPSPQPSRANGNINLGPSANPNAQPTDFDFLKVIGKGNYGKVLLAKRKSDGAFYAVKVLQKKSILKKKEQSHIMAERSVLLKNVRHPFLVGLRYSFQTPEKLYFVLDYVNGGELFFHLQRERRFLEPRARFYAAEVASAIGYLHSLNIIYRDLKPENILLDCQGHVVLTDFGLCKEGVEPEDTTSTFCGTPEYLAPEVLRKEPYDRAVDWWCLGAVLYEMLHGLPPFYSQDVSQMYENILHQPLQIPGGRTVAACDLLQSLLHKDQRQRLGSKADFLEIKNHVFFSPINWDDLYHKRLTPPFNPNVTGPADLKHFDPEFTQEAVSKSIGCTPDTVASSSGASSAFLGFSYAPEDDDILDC", "test": "Inhibition of human full length SGK2 expressed in baculovirus assessed as substrate phosphorylation using fluorescence-labelled peptides as substrate at 0.06 uM after 90 mins by microfluidic peptide phosphorylation assay"}, "[11]": {"molecular_target": "Dual specificity tyrosine-phosphorylation-regulated kinase 1A (Rattus norvegicus) (UniProt Q63470)", "test": "Inhibition of rat full length DYRK1a expressed in Escherichia coli cell assessed as substrate phosphorylation using fluorescence-labelled peptides as substrate at 0.06 uM after 90 mins by microfluidic peptide phosphorylation assay"}, "[12]": {"molecular_target": "Tyrosine-protein kinase BTK (Homo sapiens) (UniProt Q06187)", "test": "Inhibition of human full length BTK expressed in baculovirus assessed as substrate phosphorylation using fluorescence-labelled peptides as substrate at 8 uM after 90 mins by microfluidic peptide phosphorylation assay"}, "[13]": {"molecular_target": "Fibroblast growth factor receptor 3 (Homo sapiens) (UniProt P22607)", "sequence (P22607 23-806 limits assumed)": "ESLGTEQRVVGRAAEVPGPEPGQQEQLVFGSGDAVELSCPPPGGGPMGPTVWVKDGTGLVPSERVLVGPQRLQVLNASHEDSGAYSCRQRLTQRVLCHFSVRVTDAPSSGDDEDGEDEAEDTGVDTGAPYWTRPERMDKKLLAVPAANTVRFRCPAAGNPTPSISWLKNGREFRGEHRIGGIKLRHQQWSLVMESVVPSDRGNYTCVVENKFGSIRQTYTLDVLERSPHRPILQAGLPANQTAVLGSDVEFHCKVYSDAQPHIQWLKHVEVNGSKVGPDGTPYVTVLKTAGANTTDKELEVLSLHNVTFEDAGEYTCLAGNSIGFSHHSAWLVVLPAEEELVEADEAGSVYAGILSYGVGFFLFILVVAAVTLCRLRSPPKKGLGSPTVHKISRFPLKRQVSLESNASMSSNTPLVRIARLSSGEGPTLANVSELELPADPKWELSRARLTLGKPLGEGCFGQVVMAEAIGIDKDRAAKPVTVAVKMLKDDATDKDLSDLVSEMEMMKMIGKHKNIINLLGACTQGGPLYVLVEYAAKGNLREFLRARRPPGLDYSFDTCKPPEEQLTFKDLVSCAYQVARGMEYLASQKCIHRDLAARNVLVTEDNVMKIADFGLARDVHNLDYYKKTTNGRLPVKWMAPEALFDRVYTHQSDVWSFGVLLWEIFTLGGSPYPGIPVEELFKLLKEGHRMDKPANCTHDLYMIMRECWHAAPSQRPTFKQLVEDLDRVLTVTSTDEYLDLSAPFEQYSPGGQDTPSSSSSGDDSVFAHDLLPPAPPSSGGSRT", "test": "Inhibition of human FGFR3 catalytic domain expressed in baculovirus assessed as substrate phosphorylation using fluorescence-labelled peptides as substrate at 1000 uM after 90 mins by microfluidic peptide phosphorylation assay"}},
  "data": [
    {"smiles": "Clc1ccc(C2(c3ccc(-c4ncnc5[nH]cnc45)cc3)CCNCC2)cc1", "values": [
      {"measurement": "inhibition", "setting": "[1]", "result": 9.5, "unit": "%"},
      {"measurement": "inhibition", "setting": "[2]", "result": 4, "unit": "%"},
      {"measurement": "inhibition", "setting": "[3]", "result": 80, "unit": "%"}
    ]},
    {"smiles": "c1nc(N2CCOCC2)c2nc[nH]c2n1", "values": [
      {"measurement": "inhibition", "setting": "[4]", "result": 95, "unit": "%"}
    ]},
    {"smiles": "NCC1CN(c2ncnc3[nH]c4cnccc4c23)CCO1", "note": "(stereo not drawn)", "values": [
      {"measurement": "inhibition", "setting": "[5]", "result": 83, "unit": "%"},
      {"measurement": "inhibition", "setting": "[6]", "result": 53, "unit": "%"}
    ]},
    {"smiles": "COC(=O)c1cnc(Nc2cnc(C#N)cn2)cc1NCC1CCNCC1", "values": [
      {"measurement": "inhibition", "setting": "[7]", "result": 8, "unit": "%"},
      {"measurement": "inhibition", "setting": "[8]", "result": 7, "unit": "%"}
    ]},
    {"smiles": "NC1(Cc2ccc(Cl)cc2)CCN(c2ncnc3[nH]ccc23)CC1", "values": [
      {"measurement": "inhibition", "setting": "[9]", "result": 0, "unit": "%"},
      {"measurement": "inhibition", "setting": "[10]", "result": 9, "unit": "%"},
      {"measurement": "inhibition", "setting": "[11]", "result": 0, "unit": "%"}
    ]},
    {"smiles": "NCC1CCN(c2ncnc3[nH]ccc23)CC1", "values": [
      {"measurement": "inhibition", "setting": "[12]", "result": 4.5, "unit": "%"}
    ]},
    {"smiles": "c1cnc2[nH]ccc2c1", "values": [
      {"measurement": "inhibition", "setting": "[13]", "result": 63.5, "unit": "%"}
    ]}
  ]
}
